Measurements: patent publication US9668960B2, “Methods useful in studying or modulating skin or hair pigmentation, plant extracts for use in compositions and cosmetic care method” (L V M H RECHERCHE, priority 2008, dated 2017)

Legend:
[1] = test system: Normal human epidermal melanocytes (F52; p5); experiment: Melanin assay (melanogenesis) in normal pigmented human melanocytes; type: cell-based; conditions: 72 h; for Changes in melanin levels, F52 EM % change: L-18 0.001%, L-19 1%, L-20 0.5%, L-21 10 μg/ml, L-22 1%, L-23 0.05 μg/ml, IBMX 100 μM, NH4Cl 100 μM, niacinamide 10 μM, vs basal; for Melanin content, F52 EM (pg/cell): same doses as E1, basal 35.63
Experimental: Cells were then washed 3-times with sterile PBS and supplemented with 350 μl of either fresh serum-free RPMI medium (melanoma cells) or starved serum-free and BPE-free melanocyte medium (EM) and incubated at 37° C. and 5% CO2 for 24 h. Cells were then washed with sterile PBS 3-times and incubated with IBMX 1×10^-4 M at 37° C. and 5% CO2 for 12, 24, and 72 h. Cells were then gently washed 3-times with sterile PBS and fixed in ice-cold methanol for 10 minutes at -20° C. Slides were stored at -20° C. until immunocytochemistry was performed. […] The melanin standards were pipetted into a 96 well plate to produce a calibration curve for the assessment of melanin content in the test samples. 400 μl of 1 M NaOH was added to each cell pellet and dissolved on a heat block (100° C.) for 15 minutes. The pellets were vortexed vigorously and the solubilized pellet was pipetted into the same 96-well plate. The optical densities of the sample were read at […] on a DYNEX REVELATION 4.02 program. Melanin content of each test sample was read from the calibration curve. […] In addition IBMX and NH4Cl (positive melanocytic modulators) and niacinamide (negative modulator) were used as controls. Visible change was not particularly evident in normal melanocyte due to their already high basal melanin levels (FIG. 1). By contrast, visible change was evident in melanoma cells basal melanin levels were low (FIG. 2). […] Normal human epidermal melanocytes (Female-52; p5) were treated for 72 h with L-18 (0.001%), L-19 (1%), L-20 (0.5%), L-21 (10 μg/ml), L-22 (1%) and L-23 (0.05 μg/ml). Controls: Melanocytic modulators: IBMX (100 μM), NH4Cl (100 μM), and niacinamide (10 μM). (A) Melanin content was determined spectro-photometrically (475 nm) after sodium hydroxide solubilise (B) Visible change was not particularly evident in these cells due to their already high basal melanin levels. Results were expressed as change in melanin content (pg/cell) compared to unstimulated control levels. Means are ±SEM of 3 independent experiments with *P<0.05, **P<0.01, ***P<0.001. NS-Not Significant

[2] = test system: tyrosinase; experiment: DOPA oxidase detection for tyrosinase activity in FM55 melanoma; type: cell-based, human; conditions: 72 h; for Changes in tyrosinase activity, FM55 % change: same doses as E5, vs basal
Experimental: The cells were prepared for SDS-PAGE and transblotted onto PVDF membranes. 70 μg of un-reduced protein extract without boiling was pipetted into the appropriate wells of 8% SDS-PAGE gels. […] The L-DOPA reaction was stopped by washing the membrane in distilled water and the membrane was scanned. […] In addition IBMX and NH4Cl (positive melanocytic modulators) and niacinamide (negative modulator) were used as controls. […] Controls: Melanocytic modulators: IBMX (100 μM), NH4Cl (100 μM), and niacinamide (10 μM.). (A) Protein extracts were electroblotted and membranes stained with L-DOPA for the estimation of tyrosinase activity. (B) Densitometric scanning of band intensities and values were expressed as the fold increase compared to unstimulated control levels. Means are ±SEM of 3 independent experiments with *P<0.05, **P<0.01, ***P<0.001.

[3] = test system: Myo-X; experiment: Myo-X protein expression by Western blotting in normal human melanocytes; type: cell-based; conditions: EM (F39), 12 h
Experimental: Western blot analysis: EMc in a confluent T225 flask were trypsinised and seeded into T25 flask with full medium and allowed to attach overnight. 24 h before treatment the medium was replaced with starved medium for 24 h. Cells were washed 3-times with sterile PBS, and incubated in starved medium alone, or L-18 (0.001%), L-19 (1%), L-20 (0.5%), L-21 (10 μg/ml), L-22 (1%) and L-23 (0.05 μg/ml) for 12 and 72 h. Controls included IBMX (100 μM) and niacinamide (10 μM).
40 μg of total protein from each cell extract was electrophoresed in reducing SDS-8%-PAGE and blotted on PVDF membranes (Millipore Corporation, Bedford, Mass.). […]
After extensive washes the blots were incubated with horseradish peroxidise conjugated secondary antibodies for 2 h. […] The chemiluminescent signal was detected by exposing the blot strips to Kodak XRA X-ray film (Kodak, UK) at various exposure times, followed by development in developing solution (Kodak, UK) until bands appeared, rinsed in tap water, fixed in the fixer (Kodak, UK) until the film turned blue, then rinsed with tap water and allowed to dry. […]
(A) Cell extracts were analyzed by Western blotting using anti-Myo-X and anti-β-actin as a loading control.
(B) Densitometric analysis of Myo-X and actin band intensities expressed as percentage change compared to unstimulated controls. […]

| Compound | Changes in melanin levels, F52 EM % change [1] | Melanin content, F52 EM (pg/cell) [1] | Changes in tyrosinase activity, FM55 % change [2] | effect on tyrosinase (dopa oxidase) activity compared with basal levels ([2]; FM55 melanoma cells, doses as E5) | increase in Myo-10 expression, fold versus untreated controls ([3]; IBMX 100 μM) [fold] | Myo-X expression reduced by ([3]; niacinamide 10 μM) [%] |
| --- | --- | --- | --- | --- | --- | --- |
| CC(C)Cn1c(=O)n(C)c(=O)c2[nH]cnc21 [IBMX] | +74.57% | (62.2) pg/cell | +141.72% | dramatic increase in dopa oxidase activity of tyrosinase | 3 |  |
| NC(=O)c1cccnc1 [niacinamide] | −4.01% | (34.2) pg/cell | −3.31% |  |  | 60 |
